Assay results as given in PMC9671780 (Bioorganic Chemistry, 2022).
≈ marks a conversion by molar mass, not a printed value.

Assays:
SARS-CoV-2 = assay type: cell-based; conditions: for Antiviral Potency Index (API): ratio of % inhibition to that of remdesivir at 10 µM; for SARS-CoV-2 Antiviral Assay (%) inhibition of viral replication: 10 µM
SARS-CoV-2 M^pro = SARS-CoV-2 M^pro (Severe acute respiratory syndrome coronavirus 2, UniProt P0DTD1); assay: biochemical; conditions: for IC50: IC50 against SARS-CoV-2 M^pro, Table 1 and text
in vitro = conditions: African green monkey, Vero E6 Cytotoxicity (IC50), MTT
[1] = Enzymatic metabolic stability; assay type: in vitro ADME
PBS solubility screening = assay type: physicochemical; conditions: for Solubility note: PBS; for solubility: phosphate-buffered saline, aqueous buffer, kinetic from dmso stock
Vero E6 cells = conditions: for IC50: read-out: Vero E6 Cytotoxicity (IC50), MTT
TNF-α = assay: Carrageenan-induced paw edema in rats: serum TNF-α; assay type: in vivo, Sprague Dawley Rat; conditions: male rats, 100 mg/kg, 6 h after carrageenan
IL-6 = assay: Carrageenan-induced paw edema in rats: serum IL-6; assay type: in vivo, Sprague Dawley Rat; conditions: male rats, 100 mg/kg, 6 h after carrageenan

With `Cc1nn(-c2ccc(Cl)cc2)c2c1C(c1ccc(I)cc1)C(C#N)=C(N)O2` (stereo not drawn) [Compound 20, 6-Amino-1-(4-chlorophenyl)-4-(4-iodophenyl)-3-methyl-1,4-dihydropyrano[2,3-c]pyrazole-5-carbonitrile] the “Antiviral Potency Index (API)” value (SARS-CoV-2) was 0.62, the IC50 (SARS-CoV-2 M^pro) was 69.1 ± 3.5 µM and the IC50 (in vitro) was 103 ± 7.8 µM.
With `Cc1nn(-c2ccc(Cl)cc2)c2c1C(c1ccc([N+](=O)[O-])cc1)C(C#N)=C(N)O2` (stereo not drawn) [Compound 23, 6-Amino-1-(4-chlorophenyl)-4-(4-nitrophenyl)-3-methyl-1,4-dihydropyrano[2,3-c]pyrazole-5-carbonitrile] the “Antiviral Potency Index (API)” value (SARS-CoV-2) was 0.64, the IC50 (SARS-CoV-2 M^pro) was 9.5 ± 0.51 µM and the IC50 (in vitro) was 113 ± 8.6 µM.
Work on `Cc1nn(-c2ccc(Cl)cc2)c2c1C(c1cc(Cl)ccc1Cl)C(C#N)=C(N)O2` (stereo not drawn) [Compound 28, 6-Amino-1-(4-chlorophenyl)-4-(2,5-dichlorophenyl)-3-methyl-1,4-dihydropyrano[2,3-c]pyrazole-5-carbonitrile] yielded an IC50 (in vitro) of 131 ± 10 µM.
With `Cc1nn(-c2ccc(Cl)cc2)c2c1C(c1ccc(F)cc1F)C(C#N)=C(N)O2` (stereo not drawn) [Compound 25, 6-Amino-1-(4-chlorophenyl)-4-(2,4-difluorophenyl)-3-methyl-1,4-dihydropyrano[2,3-c]pyrazole-5-carbonitrile] the “Antiviral Potency Index (API)” value (SARS-CoV-2) was 0.52, the IC50 (SARS-CoV-2 M^pro) was 192 ± 9.8 µM and the IC50 (in vitro) was 47.6 ± 3.6 µM.
In the case of `Cc1nn(-c2ccc(Cl)cc2)c2c1C(c1ccc(Cl)cc1)C(C#N)=C(N)O2` (stereo not drawn) [Compound 18, 6-Amino-1-(4-chlorophenyl)-4-(4-chlorophenyl)-3-methyl-1,4-dihydropyrano[2,3-c]pyrazole-5-carbonitrile], the “Antiviral Potency Index (API)” value (SARS-CoV-2) is reported as 0.74, the IC50 (SARS-CoV-2 M^pro) is reported as 12.8 ± 0.6 µM and the IC50 (in vitro) is reported as 60.5 ± 4.6 µM.
`CC(C)NCC(O)COc1cccc2ccccc12` (stereo not drawn) [Propranolol, reference compound] showed a half-life ([1]; Mean t1/2) of 2.4 h.
For `Cc1nn(-c2ccc(Cl)cc2)c2c1C(c1cccc(Cl)c1Cl)C(C#N)=C(N)O2` (stereo not drawn) [Compound 26, 6-Amino-1-(4-chlorophenyl)-4-(2,3-dichlorophenyl)-3-methyl-1,4-dihydropyrano[2,3-c]pyrazole-5-carbonitrile], the IC50 (in vitro) was 34.8 ± 2.7 µM.
In the case of `Cc1nn(-c2ccc(Cl)cc2)c2c1C(c1ccc(-c3ccccc3)cc1)C(C#N)=C(N)O2` (stereo not drawn) [Compound 24, 4-([1,1′-Biphenyl]-4-yl)-6-amino-1-(4-chlorophenyl)-3-methyl-1,4-dihydropyrano[2,3-c]pyrazole-5-carbonitrile], the “Antiviral Potency Index (API)” value (SARS-CoV-2) is reported as 0.54, the IC50 (SARS-CoV-2 M^pro) is reported as 39.8 ± 2.2 µM and the IC50 (in vitro) is reported as 60.7 ± 4.6 µM.
In the case of `CO[C@H]1/C=C/O[C@@]2(C)Oc3c(C)c(O)c4c(O)c(c(/C=N/N5CCN(C)CC5)c(O)c4c3C2=O)NC(=O)/C(C)=C\C=C\[C@H](C)[C@H](O)[C@@H](C)[C@@H](O)[C@@H](C)[C@H](OC(C)=O)[C@@H]1C` [Rifampicin, reference compound], the Solubility note (PBS solubility screening) is reported as “Reference with good solubility” and the solubility (PBS solubility screening) is reported as 179 µM (≈ 148 µg/mL).
For `Cc1nn(-c2ccc(Cl)cc2)c2c1C(c1ccc(Br)cc1)C(C#N)=C(N)O2` (stereo not drawn) [Compound 19, 6-Amino-4-(4-bromophenyl)-1-(4-chlorophenyl)-3-methyl-1,4-dihydropyrano[2,3-c]pyrazole-5-carbonitrile], the “Antiviral Potency Index (API)” value (SARS-CoV-2) was 0.45, the IC50 (SARS-CoV-2 M^pro) was 30.9 ± 1.6 µM and the IC50 (in vitro) was 26.2 ± 20 µM.
With `CCOc1ccc(C2C(C#N)=C(N)Oc3c2c(C)nn3-c2ccc(Cl)cc2)cc1` (stereo not drawn) [Compound 31, 6-Amino-1-(4-chlorophenyl)-4-(4-ethoxyphenyl)-3-methyl-1,4-dihydropyrano[2,3-c]pyrazole-5-carbonitrile] the “Antiviral Potency Index (API)” value (SARS-CoV-2) was 0.81, the IC50 (SARS-CoV-2 M^pro) was 4.6 ± 0.25 µM and the IC50 (in vitro) was 18.1 ± 1.4 µM.
Molecule `COc1cc(C2C(C#N)=C(N)Oc3c2c(C)nn3-c2ccc(Cl)cc2)ccc1O` (stereo not drawn) [Compound 32, 6-Amino-1-(4-chlorophenyl)-4-(4-hydroxy-3-methoxyphenyl)-3-methyl-1,4-dihydropyrano[2,3-c]pyrazole-5-carbonitrile] has an IC50 (in vitro) of 45.7 ± 3.5 µM.
For `CCC(CC)COC(=O)[C@H](C)N[P@](=O)(OC[C@H]1O[C@@](C#N)(c2ccc3c(N)ncnn23)[C@H](O)[C@@H]1O)Oc1ccccc1` [Remdesivir, reference compound], the IC50 (in vitro) was 61.8 ± 4.7 µM and the “Cytotoxicity to Vero E6 cells” value (Vero E6 cells; at 60 μM) was “no cytotoxicity”.
For `Cc1nn(-c2ccc(Cl)cc2)c2c1C(c1c(Cl)cccc1Cl)C(C#N)=C(N)O2` (stereo not drawn) [Compound 29, 6-Amino-1-(4-chlorophenyl)-4-(2,6-dichlorophenyl)-3-methyl-1,4-dihydropyrano[2,3-c]pyrazole-5-carbonitrile], the “Antiviral Potency Index (API)” value (SARS-CoV-2) was 0.50, the IC50 (SARS-CoV-2 M^pro) was 44.6 µM and the IC50 (in vitro) was 63.3 ± 4.8 µM.
For `Cc1nn(-c2ccc(Cl)cc2)c2c1C(c1ccc(Cl)cc1Cl)C(C#N)=C(N)O2` (stereo not drawn) [Compound 27, 6-Amino-1-(4-chlorophenyl)-4-(2,4-dichlorophenyl)-3-methyl-1,4-dihydropyrano[2,3-c]pyrazole-5-carbonitrile], the Metabolic rate [1] was “intermediate clearance rate”, the microsomal CLint [1] was 54.6 µL/min/mg and the half-life ([1]; Intrinsic half-life (t1/2)) was greater than 2 h. For the same molecule, the half-life ([1]; Mean t1/2) was 2.23 h, the “SARS-CoV-2 Antiviral Assay (%) inhibition of viral replication” value (SARS-CoV-2) was 91.23 ± 0.25% and the “Antiviral Potency Index (API)” value (SARS-CoV-2) was 0.98. The “Mode of binding from kinetic analysis” value (SARS-CoV-2 M^pro) was “reversibly and non-competitively with non-covalent interactions”, the Solubility note (PBS solubility screening) was “Moderate aqueous solubility” and the solubility (PBS solubility screening) was 22.4 µM (≈ 9.67 µg/mL). The “Serum level of TNF-α” value (TNF-α) was 385 pg/mL, the “Serum level of IL-6” value (IL-6) was 64 pg/mL and the IC50 (in vitro) was greater than 60 µM. The IC50 (Vero E6 cells) was 62 ± 4.7 µM.
In the case of `Cc1nn(-c2ccc(Cl)cc2)c2c1C(c1ccc(O)cc1)C(C#N)=C(N)O2` (stereo not drawn) [Compound 22, 6-Amino-1-(4-chlorophenyl)-4-(4-hydroxyphenyl)-3-methyl-1,4-dihydropyrano[2,3-c]pyrazole-5-carbonitrile], the “Mode of binding from kinetic analysis” value (SARS-CoV-2 M^pro) is reported as “reversibly and non-competitively with non-covalent interactions”, the IC50 (in vitro) is reported as greater than 60 µM and the IC50 (Vero E6 cells) is reported as 67.7 ± 5.2 µM.
For `COc1ccc(C2C(C#N)=C(N)Oc3c2c(C)nn3-c2ccc(Cl)cc2)cc1` (stereo not drawn) [Compound 21, 6-Amino-1-(4-chlorophenyl)-4-(4-methoxyphenyl)-3-methyl-1,4-dihydropyrano[2,3-c]pyrazole-5-carbonitrile], the “Antiviral Potency Index (API)” value (SARS-CoV-2) was 0.49, the IC50 (SARS-CoV-2 M^pro) was 24.6 ± 1.2 µM and the IC50 (in vitro) was 78.1 ± 5.9 µM.
For `Cc1nn(-c2ccc(Cl)cc2)c2c1C(c1ccc(Cl)c(Cl)c1)C(C#N)=C(N)O2` (stereo not drawn) [Compound 30, 6-Amino-1-(4-chlorophenyl)-4-(3,4-dichlorophenyl)-3-methyl-1,4-dihydropyrano[2,3-c]pyrazole-5-carbonitrile], the “SARS-CoV-2 Antiviral Assay (%) inhibition of viral replication” value (SARS-CoV-2) was 27.84 ± 0.14%, the “Antiviral Potency Index (API)” value (SARS-CoV-2) was 0.30 and the IC50 (in vitro) was 66.5 ± 5.1 µM.
In the case of `COc1cc(C2C(C#N)=C(N)Oc3c2c(C)nn3-c2ccc(Cl)cc2)cc(OC)c1OC` (stereo not drawn) [Compound 33, 6-Amino-1-(4-chlorophenyl)-4-(3,4,5-trimethoxyphenyl)-3-methyl-1,4-dihydropyrano[2,3-c]pyrazole-5-carbonitrile], the “Antiviral Potency Index (API)” value (SARS-CoV-2) is reported as 0.83, the IC50 (SARS-CoV-2 M^pro) is reported as 22.1 ± 1.1 µM and the IC50 (in vitro) is reported as 86.2 ± 6.6 µM.
